In patent US7297551B2, “Recombinant proteins and peptides for endotoxin biosensors, endotoxin removal, and anti-microbial and anti-endotoxin therapeutics” (priority 1998, dated 2007):
Read-outs that look alike come from different tables or passages of the source. Peptide text beside a SMILES is read from it.

What was measured:
P. aeruginosa ATCC 27853 = assay: Killing rate assay; type: cell-based, Pseudomonas aeruginosa; conditions: peptides at 0.06 μg/ml, initial 10^9 cfu/ml
Description: The killing rate assay was adapted from the MBC test above, with different contact time of peptides with the bacteria arrested at regular intervals and plated for colony count. An initial density of 10^9 cfu/ml was used. […] This is one of the important features of an effective therapeutic agent.

[1] = Hill's plot for interaction between synthetic peptides and lipid A; type: binding; conditions: number of peptide molecules to 1 LPS molecule
[2] = tested on: LPS-induced hTNF-α secretion from THP-1; assay: Inhibition of LPS-induced hTNF-α secretion from PMA-treated THP-1 cells; type: cell-based, human
Procedure: […] THP-1 cells were grown in RPMI 1640 medium supplemented with 10% FBS, penicillin (100 U/ml) and streptomycin (0.1 mg/ml), at 37° C. in a humidified environment in the presence of 5% CO2. The cells were maintained at a density between 2.5×10^5 and 2.5×10^6 cells/ml.
THP-1 cells were prepared for experiment by addition of a concentrated stock solution of phorbol myristate acetate (PMA, 0.3. mg/ml in dimethyl sulfoxide) to cell suspension to give a final concentration of 30 ng/ml PMA and 0.01% dimethyl sulfoxide (25). PMA-treated cell suspensions were immediately plated into 96-well microtitre plate at a density of 4×10^5 cells/ml and allowed to differentiate for 48 hours at 37° C. […] At indicated times, the culture medium was collected.

Human erythrocytes = assay: Hemolysis assay, human erythrocytes; type: cell-based; conditions: at 100 μg/ml
Procedure: Human and rabbit erythrocytes were both used to test the hemolytic activities of the peptides. Whole blood was collected in heparinized sterile syringe, transferred to sterile borosilicate tube and centrifuged at 1200 g for 5 minutes at 4° C. The supernatant including the leukocytes above the erythrocyte pellet was discarded. The erythrocytes were washed 3 times using three volumes of prechilled pyrogen-free saline (PFS). An erythrocyte suspension at 0.4% was prepared for the hemolysis assay. Serial two-fold dilutions of the peptides was prepared in PFS and 100 μl aliquots were added to equal volumes of 0.4% erythrocyte solution in a 96-well microtiter plate (Nunclon™ Δ surface, Nunc) to give final peptide concentrations ranging from 6 to 100 μg/ml. The mixtures were incubated at 37° C. for 1 h. The intact erythrocytes were then pelleted by centrifuging at 1000 g for 5 min. One hundred μl of the supernatant was transferred to a new 96-well microtiter plate and the amount of hemoglobin released into the supernatant was determined by reading the absorbance at 414 nm using a SPECTRAmax™ 340 plate reader with SOFTmax PRO™ version 1.2.0. A positive control with 100 μl of 0.4% erythrocyte lysed in 1% Triton-X 100 was taken as 100% lysis. The negative control was the erythrocytes in PFS alone, which gave minimal lysis. This was taken as 0%.

P. aeruginosa = assay: Microbicidal concentration (MBC) assay; type: cell-based, Pseudomonas aeruginosa
Procedure: Test strains cultured on Mueller-Hinton agar (MHA, Becton Dickinson, USA) were inoculated into 10 ml Mueller-Hinton broth (MHB, Becton Dickinson, USA) and grown overnight at 37° C. in a shaker incubator (Model 4536, Forma Scientific, Inc., USA) at 230 rpm. Overnight broth cultures were diluted to give a final cell density of 10^5 colony forming units/ml (cfu/ml). One hundred microliters of the bacterial suspension was dispensed into sterile polypropylene 8-strip PCR-tubes (Quality Scientific Plastics, USA). Eleven microliters of serially diluted sushi peptides, ranging in final concentrations of 0.03-4 μg/ml, were then added. The peptides were constituted at 10 times the required test concentrations in 0.01% acetic acid and 0.2% bovine serum albumin (BSA). Positive controls were cultures without test peptides. Uninoculated MHB was used as negative control. All tests were carried out in triplicate.
Cultures were incubated at 37° C. for 18-24 h, with the PCR-tubes held in horizontal position and shaken at 230 rpm. Cell counts were determined by standard drop-count method. The killing efficiency for the four sushi peptides were calculated based on standard drop-count method.

[3] = Protection of galactosamine-sensitized mice from LPS-induced lethality; type: in vivo, C57BL/6J mice; conditions: 75 μg peptide, 2 ng LPS pre-incubated with peptide 30 minutes
Procedure: The anti-endotoxin potency of SSCrFCES was investigated in C57BL/6J mice. Mice are typically resistant to endotoxin. However, the sensitivity of mice to endotoxin can be enhanced >1,000-fold by co-injection with a liver-specific inhibitor, galactosamine (31). […] […] Lethality was observed over 3 days after injection. Statistical analysis were performed using the Kaplan-Meier test (32) and log rank pairwise test.

CC[C@H](C)[C@H](NC(=O)[C@H](CCCCN)NC(=O)[C@H](C)NC(=O)[C@H](CCCCN)NC(=O)CNC(=O)[C@H](CCCCN)NC(=O)[C@H](CC(C)C)NC(=O)[C@H](CCCCN)NC(=O)[C@H](Cc1ccccc1)NC(=O)CN)C(=O)N[C@@H](CO)C(=O)N[C@@H](CS)C(=O)N[C@@H](CC(C)C)C(=O)N1CCC[C@H]1C(=O)N[C@@H](CC(N)=O)C(=O)NCC(=O)N[C@@H](CCC(N)=O)C(=O)N[C@@H](Cc1c[nH]c2ccccc12)C(=O)N[C@@H](CO)C(=O)N[C@@H](CC(N)=O)C(=O)N[C@@H](Cc1ccccc1)C(=O)N1CCC[C@H]1C(=O)N1CCC[C@H]1C(=O)N[C@@H](CCCCN)C(=O)N[C@@H](CS)C(=O)N[C@H](C(=O)N[C@@H](CCCNC(=N)N)C(=O)N[C@@H](CCC(=O)O)C(=O)N[C@@H](CS)C(=O)N[C@@H](C)C(=O)N[C@@H](CCSC)C(=O)N[C@H](C(=O)N[C@@H](CO)C(=O)N[C@@H](CO)C(=O)O)C(C)C)[C@@H](C)CC [S1Δ] (H-GFKLKGKAKISCLPNGQWSNFPPKCIRECAMVSS-OH; N-terminus and C-terminus assumed)
Killing rate (time to achieve MBC90) (P. aeruginosa ATCC 27853): 7 min
Stoichiometry of Binding Cooperativity Hill's Coefficient [1]: 1.06
IC50 ([2]; peptide needed for 50% suppression, read-out: Suppression of LPS-Induced cytokine TNF-α (50%)): 53 µM
IC50 ([2]; read-out: 50% inhibition of LPS-induced TNF-α release, 10 ng/ml LPS, serum-free): 53.3 µM
Hemolytic activity (Human erythrocytes): negligible haemolysis
Anti-microbial Potency P. aeruginosa MBC90 (P. aeruginosa; MBC): 0.06 µg/mL
MBC90 (P. aeruginosa; P. aeruginosa): (16 nM)
Mouse Protection Assay [3]: 40% at 75
